Source: patent US9617285B2, “1-hydroxy-benzooxaboroles as antiparasitic agents” (priority 2013, dated 2017)

Key:
Assay type in all cases: in vivo
Uncinaria stenocephala = test: Experimental hookworm infections in dogs, U. stenocephala; conditions: oral, point dose of no greater than 25 mg/kg bodyweight, by Day 5
Description: (§1) Activity of Example 1 Compound Against Experimental Hookworm Infections in Dogs
(§2) The antihelminthic activity of the Example 1 compound, when administered orally at a point dose of no greater than 25 mg/kg bodyweight, is evaluated against experimental infections of the hookworms Ancylostoma caninum and Uncinaria stenocephala in dogs. Four (4) beagle dogs in good health are inoculated with 3rd-stage infective larvae of each hookworm species, per W.A.A.V.P. Guidelines (Jacobs, D. E., A. Arakawa, C. H. Courtney, et al., 1994. Vet. Parasitol. 52: 179-202) so as to provide sufficient time for development of full patency. Fecal egg counts are conducted twice before treatment (Day-2 and Day-1). On Day 0, test article (technical active dissolved in 55-65% polyethylene glycol-300, 25-35% propylene glycol and 10-20% water) is administered to all four dogs via esophageal feeding tube. Fecal egg counts are conducted post-treatment on Days 3, 5 and 7. The average of two pre-treatment fecal egg counts is used for comparison to post-treatment egg counts for the purposes of calculating efficacy (geometric mean % reduction in fecal egg count) against each hookworm species.

[1] = Tolerability of treatment in hookworm-infected dogs; conditions: oral, point dose of no greater than 25 mg/kg bodyweight
Description: as §2

Ancylostoma caninum = test: Experimental hookworm infections in dogs, A. caninum; conditions: oral, point dose of no greater than 25 mg/kg bodyweight, by Day 3
Description: as §1, §2

C[C@](C#N)(COc1ccc2c(c1Cl)B(O)OC2)NC(=O)c1ccc(OC(F)(F)F)cc1 (single isomer, unassigned) [Example 1]
reduction in U. stenocephala fecal egg count (Uncinaria stenocephala): > 50%
tolerability of treatment [1]: well tolerated
reduction in A. caninum fecal egg counts (Ancylostoma caninum): > 50%
